PMC10180197, “Novel Pyrimidine Derivatives as Antioxidant and Anticancer Agents: Design, Synthesis and Molecular Modeling Studies” (Molecules, 2023)
Read-outs that look alike come from different tables or passages of the source.

Assays:
[1] = Experimental determination of lipophilicity as RM values (RP-TLC); format: physicochemical; conditions: methanol/water 70/30 v/v, 24 °C, SD < 10%
Excerpt: Lipophilicity is an important physicochemical parameter of a drug candidate, linking solubility and membrane permeability with the ADMET (absorption, distribution, metabolism, elimination and toxicity) properties and the overall suitability of a molecule. Reversed-phase thin-layer chromatography was the method used to experimentally determine the lipophilic character of the synthesized compounds as RM values (Table 2). Lipophilicity was also theoretically calculated as clog P values using the Bio-Loom program of BioByte Corp (http://www.biobyte.com/, (accessed on 1 March 2023)). An attempt was made to correlate the experimental RM values with the theoretically calculated clog P values (Table 2). […] This disagreement could be attributed to several factors, e.g., different solvation, silanophilic interactions and hydrogen bonding.
Lipophilicity as RM values was determined through reversed-phase TLC (RP-TLC) on silica gel plates impregnated with 5% v/v liquid paraffin in light petroleum ether. Methanol/water mixture (70/30, v/v) was used as mobile phase. Closed chromatography tanks saturated with the mobile phase at 24 °C were used for the development of the plates while the spots were detected under UV light. For the determination of RM values, five individual measurements of Rf values were recorded, and the RM values were derived from the following Equation (1). (1) RM=log1/Rf−1

[2] = Reducing activity of the stable radical DPPH
Method: All the synthesized compounds were studied for their ability to interact with the stable free 2,2-diphenyl-1-picrylhydrazyl radical (DPPH) at a concentration of 100 μM after 20 min and 60 min (Table 4). This assay is based on the reduction of DPPH by transferring one electron from the antioxidant.
In vitro study was performed as reported previously by our group. In this experiment, 20 μL of the tested compound (from the stock solution), 980 μL EtOH and 1 mL ethanolic solution of DPPH (100 μM) were added in a testing tube in a final volume of 2 mL. The free radical scavenging ability was evaluated by recording the change of absorbance at 517 nm, produced by the reduction of DPPH, after 20 and 60 min at room temperature.

[3] = Inhibition of AAPH induced linoleic acid peroxidation
Method: For the lipid peroxidation study, 2,2′-Azobis(2-methylpropionamidine) dihydrochloride (AAPH) was used as the generator of peroxy radicals and sodium linoleate as the substrate that undergoes peroxidation. The conversion of linoleic acid to 13-hydroperoxy-linoleic acid was recorded at 234 nm. The change of absorbance reflects the possible antioxidant activity of the tested compounds, in comparison with the reference compound, Trolox.
In vitro study was performed as reported previously by our group. AAPH was used as a free radical generator of alkyl peroxyl radicals. For this experimental procedure, 10 μL of the tested compound (from the stock solution), 10 μL sodium linoleate (16 mM), 50 μL AAPH (40 mM) and 930 μL phosphate-buffered solution (pH 7.4) were added in a UV cuvette (1 mL), pre thermostated at 37 °C. The ability of the compounds to prevent the oxidation of linoleic acid from alkyl peroxyl radicals was evaluated by recording the change of absorbance at 234 nm, due to the conversion of linoleic acid to 13-hydroperoxy-linoleic acid. Trolox was used as the reference.

[4] = MTT cell viability assay, HaCaT; format: cell-based, human; conditions: human, HaCaT cells (epidermal keratinocyte cell line); for viability at 24 h, 10 μM: 10 μΜ; for viability at 24 h, 50 μM: 50 μΜ
Method: (§1) The MTT (3-(4,5-dimethylthiazol-2-yl)-2,5-diphenyltetrazolium bromide) assay is a colorimetric method that is used for the evaluation of cell viability. MTT is converted into colored formazan crystals, indicating the activity of mitochondria and therefore the viability of the cells. Unlike dead cells, the metabolic processes of living cells are functional, meaning that the dehydrogenase enzymes are able to reduce the yellow MTT salt solution to purple crystals, at 37 °C. The intensity of the sample’s color, due to the amount of formazan crystals, is proportional to the number of the living cells in it. Additionally, the colored product is dissolved in various solubilizing agents, such as dimethyl sulfoxide (DMSO). The colored products can be quantitatively measured at 450 nm with a plate reader spectrophotometer. In this study, the human epidermal keratinocyte cell line (HaCaT) was treated with different concentrations (100 μM, 50 μM, 10 μM and 1 μM) of the tested compounds and then the viability rates at each effect were calculated.
(§2) Τhe MTT assay was used to evaluate cell viability or cell toxicity, depending on the cell line being tested. The experimental procedure was performed in a 96-well plate, where the cells were seeded and incubated (37 °C, 5% CO2) for 24 h to grow and cover the surface of the wells. Τhe seeding concentrations for the HaCaT and A549 cells were 30 × 10^4 cells/mL and 20 × 10^4 cells/mL, respectively. After the first incubation, the solutions of the compounds (with different concentrations) were added to the adherent cells and incubated for another 24 h. The compounds were tested in triplicate against the control (only cells in medium), the blank (only medium) and the positive/negative control (cells in 100 μM silibinin solution) triplicates. Silibinin, a flavonoid with known anticancer activities, was used as a negative control for the cell viability assay and as positive control for the cytotoxicity testing assay. The light-sensitive MTT-standard solution was prepared by dissolving 1 mg/mL MTT in PBS and then filtrated (in a […] filter (Millipore, Carrigtwohill, Ireland)). On the third day, an appropriate amount of ΜΤΤ solution was added to each well and the plate was incubated for 4 h. During the incubation time, the formazan crystals were formed, which were then dissolved with 100 μL DMSO per well. Finally, the plate was stirred for 30 min, and the optical density (OD) was measured in a plate reader spectrophotometer at 450 nm.

HaCaT cell line = assay: MTT cell viability assay, HaCaT; format: cell-based, human; conditions: 24 h
Method: as §1, §2

A549 cell line = assay: MTT cytotoxicity assay, A549; format: cell-based, human; conditions: 24 h; for cytotoxicity at 10 µM / cytotoxicity at 50 µM / cytotoxicity at 100 µM: Homo sapiens; for cytotoxicity at 10 µM: read-out: % Cell Toxicity 10 μΜ; for cytotoxicity at 50 µM: read-out: % Cell Toxicity 50 μΜ; for cytotoxicity at 100 µM: A549, 100 μΜ, read-out: % Cell Toxicity 100 μΜ
Method: The compounds of this study were also tested for their cytotoxic effects against the adenocarcinomic human alveolar basal epithelial cell line (A549) at different concentrations (100 μM, 75 μΜ, 50 μM and 10 μM).
as §2

| Structure (SMILES) | RM [1] | RA % 100 μM 20 min [2] | RA % 100 μM 60 min [2] | AAPH % Inhibition 100 μM [3] | viability at 24 h, 10 μM [4] | % Cell Viability 100 μΜ (HaCaT cell line) | cytotoxicity at 10 µM (A549 cell line; A549, 10 μΜ) | cytotoxicity at 50 µM (A549 cell line; A549, 50 μΜ) | cytotoxicity at 100 µM (A549 cell line) | AAPH % Inhibition 100 μM ([3]; 100 µM) | viability at 24 h, 1 μM ([4]; 1 μΜ) | % Cell Viability 10 μΜ (HaCaT cell line; 10 μΜ) | viability at 24 h, 50 μM [4] | viability at 24 h, 100 μM ([4]; 100 μΜ) | % Cell Toxicity 10 μΜ (A549 cell line; A549, 10 μΜ) | % Cell Toxicity 50 μΜ (A549 cell line; A549, 50 μΜ) |
| --- | --- | --- | --- | --- | --- | --- | --- | --- | --- | --- | --- | --- | --- | --- | --- | --- |
| O=c1[nH]c(=S)[nH]c2nc(-c3ccccc3)cc(-c3ccc(Cl)cc3)c12 [Compound 2e, 5-(4-chlorophenyl)-7-phenyl-2-thioxo-2,3-dihydropyrido [2,3-d]pyrimidin-4(1H)-one] | −0.87 | 24% | 42% | 33% | 22.9% | no | 48% | 83.9% | 82.1% |  |  |  |  |  |  |  |
| O=c1[nH]c(=S)[nH]c2nc(-c3ccc(Cl)cc3)cc(-c3cccs3)c12 [Compound 2d, 7-(4-chlorophenyl)-5-(thiophen-2-yl)-2-thioxo-2,3-dihydropyrido [2,3-d]pyrimidin-4(1H)-one] | −0.80 | no | no | 62% | 50% | no | 48.6% | 100% | 100% |  |  |  |  |  |  |  |
| O=c1[nH]c(=S)[nH]c2nc(-c3ccccc3)cc(-c3cccs3)c12 [Compound 2c, 7-phenyl-5-(thiophen-2-yl)-2-thioxo-2,3-dihydropyrido [2,3-d]pyrimidin-4(1H)-one] | −0.83 | 14% | 10% | 52% | 16.1% | no | 49.4% | 63.6% | 100% |  |  |  |  |  |  |  |
| O=c1[nH]c(=S)[nH]c2nc(-c3ccc(Cl)cc3)cc(-c3ccc(Cl)cc3)c12 [Compound 2f, 5,7-bis(4-chlorophenyl)-2-thioxo-2,3-dihydropyrido [2,3-d]pyrimidin-4(1H)-one] | −0.91 | no | no | no activity |  | no | 48.6% | 88.1% | 100% | no | 73.4% | no |  |  |  |  |
| O=c1[nH]c(=S)[nH]c2nc(-c3ccccc3)cc(-c3ccc(Cl)cc3Cl)c12 [Compound 2g, 5-(2,4-dichlorophenyl)-7-phenyl-2-thioxo-2,3-dihydropyrido [2,3-d]pyrimidin-4(1H)-one] | −0.60 | 1% | no | 95% | 56.7% | no |  | 79.1% | 79.4% |  |  |  |  |  |  |  |
| O=C(/C=C/c1ccc(Cl)cc1Cl)c1ccccc1 [Compound 1g, (E)-3-(2,4-dichlorophenyl)-1-phenylprop-2-en-1-one] | −0.21 | 2% | 8% | 39% | 100% |  |  |  | 10.8% |  |  |  | 32.7% | 2.1% | no | no |
| O=C(/C=C/c1ccccc1)c1ccc(Cl)cc1 [Compound 1b, (E)-1-(4-chlorophenyl)-3-phenylprop-2-en-1-one] | −0.50 | no | 4% | 51% | 28.1% | no | 49.2% | 88.1% | 100% |  |  |  |  |  |  |  |
| O=c1[nH]c(=S)[nH]c2nc(-c3ccc(Cl)cc3)cc(-c3ccc(Cl)cc3Cl)c12 [Compound 2h, 7-(4-chlorophenyl)-5-(2,4-dichlorophenyl)-2-thioxo-2,3-dihydropyrido [2,3-d]pyrimidin-4(1H)-one] | −0.48 | no | no | 99% | 100% | no | 49.1% | 76.9% | 100% |  |  |  | 89.9% |  |  |  |
| O=C(/C=C/c1ccccc1)c1ccccc1 [Compound 1a, (E)-1,3-diphenylprop-2-en-1-one] | −0.57 | 22% | no | 6% | 55.1% | no | 41.8% | 81.6% | 100% |  |  |  |  |  |  |  |
